Test results taken from US7094400B1, “Transkaryotic implantation” (Shire Human Genetic Therapies, Inc., priority 1987, dated 2006).

Experiments:
[1] = tested on: Transfected cells which expressed human growth hormone; test: Effects of immunosuppression on IP cells, serum human growth hormone; format: in vivo; details: for serum human growth hormone: in ng/mL
From the text: If the transfected cells are destroyed by transplant rejection, immunosuppression should prolong the functional life of the implant.

[2] = tested on: mouse metallothionein-I promoter; test: Zinc induction of hGH expression from intraperitoneally implanted cells (metallothionein-I promoter); format: in vivo, mice; details: 76 mM ZnSO4 in drinking water; IP stably transfected cells
Procedure: As described above, the plasmid pXGH5 contains the mouse metallothionein-I promoter. In order to determine whether the implanted cells were sufficiently healthy to respond to their local environment, the ability of zinc to induce higher levels of human growth hormone expression was determined. Stably transfected cells, prepared as described in Example 1B, were implanted intraperitoneally in mice, some of which were given 76 mM ZnSO4 in their drinking water. The animals treated with zinc expressed ten-fold more human growth hormone in their serum than did those with no treatment. […] Furthermore, RNA prepared from cells recovered from subcapsular implants contained the correct mMT-I/human growth hormone fusion mRNA (FIG. 5). […] Of substantial importance is the fact that the cells, once in place in the animal, could still be modulated by external means.

Structure (SMILES) | serum human growth hormone detectable until [1] | serum human growth hormone ([1]; day 1 post-implantation) | serum human growth hormone ([1]; day 2 post-implantation) | serum human growth hormone ([1]; day 4 post-implantation) | serum human growth hormone ([1]; day 21 post-implantation) | serum human growth hormone ([1]; day 27 post-implantation) | serum human growth hormone ([1]; day 41 post-implantation) | serum human growth hormone ([1]; day 48 post-implantation) | serum human growth hormone ([1]; days 8 to 10 post-implantation) | serum human growth hormone ([1]; days 15 to 17 post-implantation) | human growth hormone in serum versus no treatment [2]
C[C@@H]1C[C@H]2[C@@H]3CCC4=CC(=O)C=C[C@]4(C)[C@@]3(F)[C@@H](O)C[C@]2(C)[C@@]1(O)C(=O)CO [Dexamethasone, dexamethasone] | 48 days post-implantation | 94.8 +/− 9.2 | 86.6 +/− 10.5 | 54.3 +/− 14.2 | 28.0 +/− 13.6 | 13.9 +/− 6.9 | 7.5 +/− 6.1 | 2.7 +/− 2.2 | 99.3 +/− 48.0 | 28.3 +/− 18.1 | –
O=S(=O)([O-])[O-].[Zn+2] [ZnSO4] | – | – | – | – | – | – | – | – | – | – | ten-fold more
